Data on 23 compounds can be found in US5430062A, “Stilbene derivatives as anticancer agents” (priority 1993, dated 1995).

The test system of one data set is tubulin. The data set can be described thus: Inhibition of tubulin polymerization (turbidimetry). Type of data set: biochemical, bovine.
In another data set the test system is MLM melanoma. The experiment in a line: MTT cytotoxicity assay, MLM. As to conditions: […], read-out: Cytotoxicity ED50, MLM. A general note: Tetrazolium dyes change colour on reduction, which living cells bring about.
The next data set relates to A-549 lung carcinoma. The data set can be described thus: MTT cytotoxicity assay, A-549. As to conditions: Homo sapiens, A549, […], read-out: Cytotoxicity ED50, A-549.
A further data set concerns MCF-7 breast carcinoma. The experiment in a line: MTT cytotoxicity assay, MCF-7. The conditions noted are these: Homo sapiens, MCF7, […], read-out: Cytotoxicity ED50, MCF-7.
Data set [1] has as its system HT-29 colon adenocarcinoma. The experiment in a line: MTT cytotoxicity assay, HT-29. The conditions noted are these: Homo sapiens, HT-29, […], read-out: Cytotoxicity ED50, HT-29.
The subject of another data set is SKMEL-5 melanoma. The data set can be described thus: MTT cytotoxicity assay, SKMEL-5. As to conditions: Homo sapiens, SK-MEL-5, […], read-out: Cytotoxicity ED50, SKMEL-5.
Data set [2] relates to five cancer cell cultures. The data set can be described thus: MTT cytotoxicity assay, five cancer cell cultures taken together. The conditions noted are these: for cytotoxicity (in words): five cancer cell lines.
Where [3] appears, read: second series (Tables V-VII, IX), read-out: Inhibition of Tubulin Polymerization IC50 (±S.D.).
[4] abbreviates: read-out: cytotoxicity ED50, five cancer cell lines.

Where two headings read alike, the source gives them in different places. Bounds are passed on as bounds.

`COc1ccccc1/C=C\c1cc(OC)c(OC)c(OC)c1` [compound 5c, (Z)-1-(2-Methoxyphenyl)-2-(3,4,5-trimethoxyphenyl)ethene]: in the data set with tubulin, the “inhibition of tubulin polymerization (in words)” value (shortened to “inhibition”) is reported as “low activity”. In addition, the IC50 in the data set with MLM melanoma is 8.6 µM; with A-549 lung carcinoma, 1.1 µM; in the data set on MCF-7 breast carcinoma, 1.3 µM; in data set [1], 0.87 µM; with SKMEL-5 melanoma it was 1.2 µM. Also, the “cytotoxicity (in words)” value in data set [2] was “decreased the activity drastically”.
Take `CCOc1ccc(/C=C/c2cc(OC)c(OC)c(OC)c2)cc1` [16a]: the IC50 in the data set with MLM melanoma was 0.22 µM; in the data set on A-549 lung carcinoma it was 0.17 µM; with MCF-7 breast carcinoma, 0.75 µM; in data set [1] it was 1.49 µM; in the data set on SKMEL-5 melanoma, 1.17 µM; in data set [2] (read-out: cytotoxicity ED50), ~0.1 µM.
On to `CCN(CC)CCOC(=O)/C(=C/c1ccc(OC)cc1)c1cc(OC)c(OC)c(OC)c1` [24e, (E)-(2-N,N-Diethylamino)ethyl-3-(4-methoxyphenyl)-2-(3,4,5-trimethoxyphenyl)-prop-2-enoate], for which the IC50 is > 40 µM in the data set on tubulin (setting [3]); > 25 µM in the data set on MLM melanoma; 1.8 µM with A-549 lung carcinoma; 2.1 µM in the data set on MCF-7 breast carcinoma; 2.8 µM in data set [1]; 2.7 µM in the data set with SKMEL-5 melanoma. Further, in data set [2], the “cytotoxicity (in words)” value was “did not show considerable cytotoxicity”.
On to `COc1ccc(/C=C\c2ccc(OC)c(OC)c2)cc1` [15h, (Z)-(4-Methoxyphenyl)-2-(3,4-dimethoxyphenyl)ethene], for which the IC50 (with MLM melanoma; in the data set on A-549 lung carcinoma; in the data set with MCF-7 breast carcinoma; in data set [1]; in the data set with SKMEL-5 melanoma; in data set [2] (setting [4])) was > 25 µM each time.
Turning to `COc1cc(/C=C\c2ccc(C(C)C)cc2)cc(OC)c1OC` [compound 15f, (Z)-[4-(2-Propyl)phenyl]-2-(3,4,5-trimethoxyphenyl)ethene], the IC50 in the data set with MLM melanoma was 0.07 µM; in the data set on A-549 lung carcinoma, 0.0066 µM; with MCF-7 breast carcinoma, 0.0014 µM; in data set [1], 0.0024 µM; with SKMEL-5 melanoma, 0.00047 µM; in data set [2] (read-out: cytotoxicity ED50), 0.00047 to 0.07 µM.
Consider `COc1cc(/C=C\c2cccnc2)cc(OC)c1OC` [5j, (Z)-1-(3-Pyridyl)-2-(3,4,5-trimethoxyphenyl)ethene], for which the IC50 with MLM melanoma was > 25 µM; in the data set with A-549 lung carcinoma, 13.7 µM; in the data set on MCF-7 breast carcinoma, 14.7 µM; in data set [1], 9.8 µM; in the data set with SKMEL-5 melanoma, 6 µM; in data set [2] (setting [4]) it was > 10 µM.
As to `COc1cc(/C=C/c2ccc(SC)cc2)cc(OC)c1OC` [16c], the IC50 with MLM melanoma is 7.3 µM; in the data set on A-549 lung carcinoma it was 0.47 µM; in the data set on MCF-7 breast carcinoma, 0.059 µM; in data set [1] it was 0.083 µM; in the data set with SKMEL-5 melanoma, 0.28 µM; in data set [2] (read-out: cytotoxicity ED50, in at least three cell lines) it was ~0.1 µM.
For the compound `COc1cc(/C=C\c2ccc(O)cc2)cc(OC)c1OC` [compound 5o, (Z)-1-(4-Hydroxyphenyl)-2-(3,4,5-trimethoxyphenyl)ethene], the IC50 in the data set with MLM melanoma worked out at 12.6 µM; in the data set with A-549 lung carcinoma, 12.7 µM; in the data set on MCF-7 breast carcinoma it was 5.7 µM; in data set [1], 1.75 µM; with SKMEL-5 melanoma, 2.27 µM. Moreover, the “cytotoxicity (in words)” value in data set [2] is “decreased the activity drastically”.
Regarding `COc1ccc(Cc2c3cc(OC)c(OC)c(OC)c3cc[n+]2C)cc1` [compound 37, 1-(4'-Methoxybenzyl)-5,6,7-trimethoxyisoquinoline Methiodide], the IC50 in the data set on tubulin (setting [3]) was > 40 µM; in the data set on MLM melanoma, > 25 µM; with A-549 lung carcinoma, 19.5 µM; with MCF-7 breast carcinoma, > 25 µM; in data set [1], 20.5 µM; in the data set with SKMEL-5 melanoma, 2.1 µM.
As for `COc1cc(/C=C\c2ccccn2)cc(OC)c1OC` [5k, (Z)-1-(2-Pyridyl)-2-(3,4,5-trimethoxyphenyl)ethene], the IC50 with MLM melanoma is > 25 µM; in the data set on A-549 lung carcinoma, > 25 µM; in the data set on MCF-7 breast carcinoma it was > 25 µM; in data set [1] it was > 25 µM; in the data set with SKMEL-5 melanoma, > 25 µM; in data set [2] (setting [4]), > 10 µM.
With `COc1cc(/C=C/c2ccc(C(C)C)cc2)cc(OC)c1OC` [16f, (E)-[4-(2-Propyl)phenyl]-2-(3,4,5-trimethoxyphenyl)ethene], the IC50 in the data set with MLM melanoma was > 25 µM; in the data set with A-549 lung carcinoma it was 9.8 µM; in the data set with MCF-7 breast carcinoma, 18.4 µM; in data set [1] it was 6.8 µM; with SKMEL-5 melanoma, 11.1 µM; in data set [2] (read-out: cytotoxicity ED50), ~0.1 µM.
For the compound `COc1cc(/C=C\c2ccc([N+](=O)[O-])cc2)cc(OC)c1OC` [5l, (Z)-1-(4-Nitrophenyl)-2-(3,4,5-trimethoxyphenyl)ethene], the IC50 (with MLM melanoma; in the data set on A-549 lung carcinoma; with MCF-7 breast carcinoma; in data set [1]; with SKMEL-5 melanoma) was > 25 µM throughout. Also, the “cytotoxicity (in words)” value in data set [2] is “decreased the activity drastically”.
Regarding `COc1ccc(C(=O)c2c3cc(OC)c(OC)c(OC)c3cc[n+]2C)cc1` [compound 40, 1-(4'-Methoxybenzoyl)-5,6,7-trimethoxyisoquinoline Methiodide], the IC50 is > 40 µM in the data set on tubulin (setting [3]); > 25 µM with MLM melanoma; > 25 µM with A-549 lung carcinoma; > 25 µM with MCF-7 breast carcinoma; > 25 µM in data set [1]; > 25 µM in the data set with SKMEL-5 melanoma.
Take `COc1cc(/C=C\c2ccc(C(C)(C)C)cc2)cc(OC)c1OC` [compound 15g, (Z)-1-(4-t-Butylphenyl)-2-(3,4,5-trimethoxyphenyl)ethene]: the IC50 in the data set on tubulin (setting [3]) is > 40 µM; in the data set with MLM melanoma, 4.32 µM; in the data set on A-549 lung carcinoma, 1.02 µM; in the data set on MCF-7 breast carcinoma, 1.57 µM; in data set [1], 0.88 µM; in the data set on SKMEL-5 melanoma, 0.21 µM.
For the compound `COc1ccc(C(=O)c2nccc3c(OC)c(OC)c(OC)cc23)cc1` [compound 39, 1-(4'-Methoxybenzoyl)-5,6,7-trimethoxyisoquinoline], the IC50 was > 40 µM with tubulin (setting [3]); > 25 µM in the data set with MLM melanoma; > 25 µM with A-549 lung carcinoma; > 25 µM in the data set with MCF-7 breast carcinoma; > 25 µM in data set [1]; > 25 µM with SKMEL-5 melanoma.
Turning to `COc1ccc(NC(=O)c2cc(OC)c(OC)c(OC)c2)cc1` [11a, 3,4,5-Trimethoxy-N-(4-methoxyphenyl)benzamide], the “inhibition” value in the data set with tubulin was “lower inhibitory activity”. For the same compound, the IC50 in the data set with MLM melanoma was > 25 µM; in the data set with A-549 lung carcinoma, 14.1 µM; in the data set with MCF-7 breast carcinoma, 12.2 µM; in data set [1] it was 22.7 µM; in the data set with SKMEL-5 melanoma, > 25 µM.
Take `COc1ccc(CNc2cc(OC)c(OC)c(OC)c2)cc1` [12c, 4-Methoxy-N-(3,4,5-trimethoxyphenyl)benzylamine]: the “inhibition” value in the data set with tubulin was “lower inhibitory activity”. The IC50 in the data set with tubulin (first series (Table VIII and text), 37° C., 20 min, read-out: Tubulin polymerization IC50 (±S.D.)) is > 50 µM; in the data set on MLM melanoma it was > 25 µM; with A-549 lung carcinoma, 0.83 µM; in the data set on MCF-7 breast carcinoma it was 0.86 µM; in data set [1], 2.24 µM; in the data set on SKMEL-5 melanoma, 1.13 µM.
As for `COc1cc(/C=C\c2ccncc2)cc(OC)c1OC` [5i, (Z)-1-(4-Pyridyl)-2-(3,4,5-trimethoxyphenyl)ethene], the IC50 with MLM melanoma was > 25 µM; with A-549 lung carcinoma, 14.2 µM; in the data set with MCF-7 breast carcinoma it was 17 µM; in data set [1], 12.9 µM; in the data set on SKMEL-5 melanoma, 14.4 µM; in data set [2] (setting [4]), > 10 µM.
Regarding `COc1ccc2c(ccc3cc(OC)c(OC)c(OC)c32)c1` [32c, 2,3,4,7-Tetramethoxyphenanthrene], the IC50 was > 40 µM in the data set on tubulin (setting [3]); > 25 µM in the data set with MLM melanoma; > 25 µM in the data set with A-549 lung carcinoma; > 25 µM in the data set with MCF-7 breast carcinoma; > 25 µM in data set [1]; > 25 µM in the data set with SKMEL-5 melanoma.
Regarding `COc1cc(CCc2ccc(C)cc2)cc(OC)c1OC` [17d, 1-(4-Methylphenyl)-2-(3,4,5-trimethoxyphenyl)ethane], the IC50 stood at 21 µM in the data set on tubulin (setting [3]); 1.4 µM with MLM melanoma; 0.18 µM in the data set on A-549 lung carcinoma; 0.22 µM in the data set with MCF-7 breast carcinoma; 0.1 µM in data set [1]; 0.27 µM with SKMEL-5 melanoma.
`COC(=O)/C(=C/c1cccc(OC)c1)c1cc(OC)c(OC)c(OC)c1` [compound 24b, (E)-Methyl 3-(3-methoxyphenyl)-2-(3,4,5-trimethoxy-phenyl)-prop-2-enoate]: the IC50 with tubulin (setting [3]) was > 40 µM; in the data set with MLM melanoma it was 15.5 µM; in the data set on A-549 lung carcinoma, 1.3 µM; in the data set with MCF-7 breast carcinoma it was 1.3 µM; in data set [1], 0.7 µM; with SKMEL-5 melanoma, 1.5 µM.
For `COc1cc(/C=C\c2ccc(O[Si](C)(C)C(C)(C)C)cc2)cc(OC)c1OC` [5m, (Z)-1-[(4-t-Butyldimethylsilyloxy)phenyl]-2-(3,4,5-trimethoxyphenyl)ethene], the IC50 was 17.2 µM with MLM melanoma; 11 µM in the data set with A-549 lung carcinoma; 7.29 µM in the data set with MCF-7 breast carcinoma; 10.6 µM in data set [1]; 7.59 µM in the data set with SKMEL-5 melanoma. Besides, in data set [2], the “cytotoxicity (in words)” value is “decreased the activity drastically”.
With `COc1ccc(/C(=C\c2cc(OC)c(OC)c(OC)c2)C(=O)O)cc1` [23c, (E)-2-(4-Methoxyphenyl)-3-(3,4,5-trimethoxyphenyl)-prop-2-enoic acid], the IC50 in the data set with tubulin (setting [3]) was > 40 µM; in the data set on MLM melanoma it was > 25 µM; in the data set on A-549 lung carcinoma it was 5.2 µM; with MCF-7 breast carcinoma, 1.9 µM; in data set [1] it was 5.9 µM; in the data set with SKMEL-5 melanoma it was 2.3 µM.
